Source: patent US20220153754A1 (JANSSEN SCIENCES IRELAND UNLIMITED COMPANY, priority 2019, published 2022)
pEC50: −log10 of the molar value.

What follows are compounds tested on HBV (assay: HBV replication inhibition assay (BDNA assay)). Conditions: Hepatitis B virus, HepG2.2.15, 144 h, HepG2.2.15 cells, incubated with compound for 6 days, encapsidated HBV DNA from supernatant detected by branched DNA QuantiGene assay.
Assay type: cell-based
Procedure: HBV replication inhibition by the disclosed compounds were determined in cells infected or transfected with HBV or cells with stably integrated HBV, such as HepG2.2.15 cells (Sells et al. 1987). In this example, HepG2.2.15 cells were maintained in cell culture medium containing 10% fetal bovine serum (FBS), Geneticin, L-glutamine, penicillin and streptomycin. HepG2.2.15 cells were seeded in 96-well plates at a density of 40,000 cells/well and were treated with serially diluted compounds at a final DMSO concentration of 0.5% either alone or in combination by adding drugs in a checker box format. Cells were incubated with compounds for three days, after which medium was removed and fresh medium containing compounds was added to cells and incubated for another three days. At day 6, supernatant was removed and treated with DNase at 37° C. for 60 minutes, followed by enzyme inactivation at 75° C. for 15 minutes. Encapsidated HBV DNA was released from the virions and covalently linked HBV polymerase by incubating in lysis buffer (Affymetrix QS0010) containing 2.5 μg proteinase K at 50° C. for 40 minutes. HBV DNA was denatured by addition of 0.2 M NaOH and detected using a branched DNA (BDNA) QuantiGene assay kit according to manufacturer recommendation (Affymetrix). HBV DNA levels were also quantified using qPCR, based on amplification of encapsidated HBV DNA extraction with QuickExtraction Solution (Epicentre Biotechnologies) and amplification of HBV DNA using HBV specific PCR probes that can hybridize to HBV DNA and a fluorescently labeled probe for quantitation. In addition, cell viability of HepG2.2.15 cells incubated with test compounds alone or in combination was determined by using CellTitre-Glo reagent according to the manufacturer protocol (Promega). The mean background signal from wells containing only culture medium was subtracted from all other samples, and percent inhibition at each compound concentration was calculated by normalizing to signals from HepG2.2.15 cells treated with 0.5% DMSO using equation E1.
where DMSOave is the mean signal calculated from the wells that were treated with DMSO control (0% inhibition control) and Xi is the signal measured from the individual wells. EC50 values, effective concentrations that achieved 50% inhibitory effect, were determined by non-linear fitting using Graphpad Prism software (San Diego, Calif.) and equation E2.
where Y represents percent inhibition values and X represents the logarithm of compound concentrations.
Selected disclosed compounds were assayed in the HBV replication assay (BDNA assay), as described above, and a representative group of these active compounds is shown in Table 3.
`Cc1nnc2n1CCCn1nc3c(c1-2)CN(C(=O)Nc1ccc(F)c(Cl)c1)CC3` [Example 21, N-(3-Chloro-4-fluorophenyl)-3-methyl-6,7,10,11-tetrahydro-5H-pyrido-[4′,3′:3,4]pyrazolo[1,5-a][1,2,4]triazolo[3,4-c][1,4]diazepine-12(13H)-carboxamide] was tested, and the pEC50 was 5.57.
`O=C(Nc1ccc(F)c(Cl)c1)N1CCc2nn3c(c2C1)-c1nncn1CCC3` [Example 20, N-(3-Chloro-4-fluorophenyl)-6,7,10,11-tetrahydro-5H-pyrido[4′,3′:3,4]-pyrazolo[1,5-a][1,2,4]triazolo[3,4-c][1,4]diazepine-12(13H)-carboxamide] showed a pEC50 of 5.70.
In the case of `O=C(Nc1ccc(F)c(Cl)c1)N1CCc2nn3c(c2C1)-c1nocc1CCC3` [Example 31, N-(3-Chloro-4-fluorophenyl)-5,6,9,10-tetrahydro-4H-isoxazolo[3,4-c]pyrido[4′,3′:3,4]pyrazolo[1,5-a]azepine-11(12H)-carboxamide], the pEC50 was 8.05.
With `O=C(Nc1ccc(F)c(C(F)(F)F)c1)N1CCc2nn3c(c2C1)-c1ncccc1CCC3` [Example 28, N-(4-Fluoro-3-(trifluoromethyl)phenyl)-6,7,10,11-tetrahydro-5H-pyrido[2,3-c]pyrido[4′,3′:3,4]pyrazolo[1,5-a]azepine-12(13H)-carboxamide] the pEC50 was 5.74.
For `CC1Cc2conc2-c2c3c(nn2C1)CCN(C(=O)Nc1ccc(F)c(C(F)(F)F)c1)C3` (stereo not shown) [Example 12, N-(4-Fluoro-3-(trifluoromethyl)phenyl)-5-methyl-5,6,9,10-tetrahydro-4H-isoxazolo[3,4-c]pyrido[4′,3′:3,4]pyrazolo[1,5-a]azepine-11(12H)-carboxamide], the pEC50 was 7.28.
`C[C@@H]1Cc2nn3c(c2CN1C(=O)Nc1ccc(F)c(C(F)(F)F)c1)-c1nocc1CCC3` [Example 19, (10R)—N-(4-Fluoro-3-(trifluoromethyl)phenyl)-10-methyl-5,6,9,10-tetrahydro-4H-isoxazolo[3,4-c]pyrido[4′,3′:3,4]pyrazolo[1,5-a]azepine-11(12H)-carboxamide] showed a pEC50 of 7.57.
Compound `N#Cc1cc(NC(=O)N2CCc3nn4c(c3C2)-c2ncccc2CCC4)ccc1F` [Example 27, N-(3-Cyano-4-fluorophenyl)-6,7,10,11-tetrahydro-5H-pyrido[2,3-c]pyrido[4′,3′:3,4]pyrazolo[1,5-a]azepine-12(13H)-carboxamide] has a pEC50 of 6.77.
In the case of `CC1Cc2conc2-c2c3c(nn2C1)CCN(C(=O)Nc1ccc(F)c(C#N)c1)C3` (stereo not shown) [Example 13, N-(3-Cyano-4-fluorophenyl)-5-methyl-5,6,9,10-tetrahydro-4H-isoxazolo[3,4-c]pyrido[4′,3′:3,4]pyrazolo[1,5-a]azepine-11(12H)-carboxamide], the pEC50 was 7.28.
In the case of `O=C(Nc1ccc(F)c(C(F)(F)F)c1)N1CCc2nn3c(c2C1)-c1nocc1CC(CO)C3` (stereo not shown) [Example 4, N-(4-Fluoro-3-(trifluoromethyl)phenyl)-5-(hydroxymethyl)-5,6,9,10-tetrahydro-4H-isoxazolo[3,4-c]pyrido[4′,3′:3,4]pyrazolo[1,5-a]azepine-11(12H)-carboxamide], the pEC50 was 7.24.
Compound `O=C(Nc1ccc(F)c(Cl)c1)N1CCc2nn3c(c2C1)-c1n[nH]cc1CCC3` [Example 25, N-(3-Chloro-4-fluorophenyl)-4,5,6,9,10,12-hexahydropyrazolo[3,4-c]pyrido[4′,3′:3,4]pyrazolo[1,5-a]azepine-11(2H)-carboxamide] has a pEC50 of 7.55.
`Cn1ncc2c1-c1c3c(nn1CCC2)CCN(C(=O)Nc1ccc(F)c(Cl)c1)C3` [Example 30, N-(3-Chloro-4-fluorophenyl)-1-methyl-4,5,6,9,10,12-hexahydropyrazolo[3,4-c]pyrido[4′3′:3,4]pyrazolo[1,5-a]azepine-11(1H)-carboxamide] gave a pEC50 of 5.47.
With `C[C@@H]1Cc2nn3c(c2CN1C(=O)Nc1ccc(F)c(Cl)c1)-c1nncn1CCC3` [Example 22, (R)—N-(3-Chloro-4-fluorophenyl)-11-methyl-6,7,10,11-tetrahydro-5H-pyrido[4′,3′:3,4]pyrazolo[1,5-a][1,2,4]triazolo[3,4-c][1,4]diazepine-12(13H)-carboxamide] the pEC50 was under 5.40.
Compound `N#Cc1cc(NC(=O)N2CCc3nn4c(c3C2)-c2nocc2CC(O)C4)ccc1F` (stereo not shown) [Example 11, N-(3-Cyano-4-fluorophenyl)-5-hydroxy-5,6,9,10-tetrahydro-4H-isoxazolo[3,4-c]pyrido[4′,3′:3,4]pyrazolo[1,5-a]azepine-11(12H)-carboxamide] has a pEC50 of 7.37.
For `C=C1Cc2cnoc2-c2c3c(nn2C1)CCN(C(=O)Nc1ccc(F)c(C#N)c1)C3` [Example 9, N-(3-Cyano-4-fluorophenyl)-5-methylene-5,6,9,10-tetrahydro-4H-isoxazolo[5,4-c]pyrido[4′,3′:3,4]pyrazolo[1,5-a]azepine-11(12H)-carboxamide], the pEC50 was 6.10.
`N#Cc1cc(NC(=O)N2CCc3nn4c(c3C2)-c2nnccc2CCC4)ccc1F` [Example 24, N-(3-Cyano-4-fluorophenyl)-6,7,10,11-tetrahydro-5H-pyridazino[3,4-c]pyrido[4′,3′:3,4]pyrazolo[1,5-a]azepine-12(13H)-carboxamide] showed a pEC50 of 6.04.
Compound `C[C@@H]1Cc2nn3c(c2CN1C(=O)Nc1ccc(F)c(C(F)(F)F)c1)-c1oncc1CCC3` [Example 15, (10R)—N-(4-Fluoro-3-(trifluoromethyl)phenyl)-10-methyl-5,6,9,10-tetrahydro-4H-isoxazolo[5,4-c]pyrido[4′,3′:3,4]pyrazolo[1,5-a]azepine-11(12H)-carboxamide] has a pEC50 of 7.08.
For `C=C1Cc2conc2-c2c3c(nn2C1)CCN(C(=O)Nc1ccc(F)c(C(F)(F)F)c1)C3` [Example 2, N-(4-Fluoro-3-(trifluoromethyl)phenyl)-5-methylene-5,6,9,10-tetrahydro-4H-isoxazolo[3,4-c]pyrido[4′,3′:3,4]pyrazolo[1,5-a]azepine-11(12H)-carboxamide], the pEC50 was 7.12.
In the case of `Cn1cc2c(n1)-c1c3c(nn1CCC2)CCN(C(=O)Nc1ccc(F)c(Cl)c1)C3` [Example 29, N-(3-Chloro-4-fluorophenyl)-2-methyl-4,5,6,9,10,12-hexahydropyrazolo[3,4-c]pyrido[4′,3′:3,4]pyrazolo[1,5-a]azepine-11(2H)-carboxamide], the pEC50 was 5.51.
Compound `Cc1nnc2n1CCCn1nc3c(c1-2)CN(C(=O)Nc1ccc(F)c(Cl)c1)[C@H](C)C3` [Example 23] has a pEC50 of under 5.40.
With `O=C(Nc1ccc(F)c(C(F)(F)F)c1)N1CCc2nn3c(c2C1)-c1nocc1C[C@@H](COCC(F)F)C3` (single isomer, unassigned) [Example 8, (5R*)-5-((2,2-Difluoroethoxy)methyl)-N-(4-fluoro-3-(trifluoromethyl)phenyl)-5,6,9,10-tetrahydro-4H-isoxazolo[3,4-c]pyrido[4′,3′:3,4]pyrazolo[1,5-a]azepine-11(12H)-carboxamide] the pEC50 was 7.59.
In the case of `N#Cc1cc(NC(=O)N2CCc3nn4c(c3C2)-c2n[nH]cc2CCC4)ccc1F` [Example 26, N-(3-Cyano-4-fluorophenyl)-4,5,6,9,10,12-hexahydropyrazolo[3,4-c]pyrido[4′,3′:3,4]pyrazolo[1,5-a]azepine-11(2H)-carboxamide], the pEC50 was 7.64.
`C[C@@H]1Cc2nn3c(c2CN1C(=O)Nc1ccc(F)c(C#N)c1)-c1oncc1CCC3` [Example 14, (10R)—N-(3-Cyano-4-fluorophenyl)-10-methyl-5,6,9,10-tetrahydro-4H-isoxazolo[5,4-c]pyrido[4′,3′:3,4]pyrazolo[1,5-a]azepine-11(12H)-carboxamide] showed a pEC50 of 7.23.
